In ChEMBL document CHEMBL4665869, “New thiazolopyrimidine as anticancer agents: Synthesis, biological evaluation, DNA binding, molecular modeling and ADMET study” (Bioorg Med Chem Lett, 2020):
≈ marks a conversion by molar mass, not a printed value.

Assays:
LOX IMVI = assay: Growth inhibition of human LOX IMVI cells at 10 uM relative to control; assay type: functional; settings: read-out: GI
MDA-MB-468 = assay: Growth inhibition of human MDA-MB-468 cells at 10 uM relative to control; assay type: functional; settings: read-out: GI
T47D = assay: Growth inhibition of human T47D cells at 10 uM relative to control; assay type: functional; settings: read-out: GI
CCRF-CEM = assay: Growth inhibition of human CCRF-CEM cells at 10 uM relative to control; assay type: functional; settings: read-out: GI
HL-60(TB) = assay: Growth inhibition of human HL-60(TB) cells at 10 uM relative to control; assay type: functional; settings: read-out: GI
K562 = assay: Growth inhibition of human K562 cells at 10 uM relative to control; assay type: functional; settings: read-out: GI
MOLT-4 = assay: Growth inhibition of human MOLT-4 cells at 10 uM relative to control; assay type: functional; settings: read-out: GI
RPMI-8226 = assay: Growth inhibition of human RPMI-8226 cells at 10 uM relative to control; assay type: functional; settings: read-out: GI
SR = assay: Growth inhibition of human SR cells at 10 uM relative to control; assay type: functional; settings: read-out: GI
A549 = assay: Growth inhibition of human A549 cells at 10 uM relative to control; assay type: functional; settings: read-out: GI
HOP-62 = assay: Growth inhibition of human HOP-62 cells at 10 uM relative to control; assay type: functional; settings: read-out: GI
HOP-92 = assay: Growth inhibition of human HOP-92 cells at 10 uM relative to control; assay type: functional; settings: read-out: GI
NCI-H226 = assay: Growth inhibition of human NCI-H226 cells at 10 uM relative to control; assay type: functional; settings: read-out: GI
NCI-H23 = assay: Growth inhibition of human NCI-H23 cells at 10 uM relative to control; assay type: functional; settings: read-out: GI
NCI-H322M = assay: Growth inhibition of human NCI-H322M cells at 10 uM relative to control; assay type: functional; settings: read-out: GI
NCI-H460 = assay: Growth inhibition of human NCI-H460 cells at 10 uM relative to control; assay type: functional; settings: read-out: GI
NCI-H522 = assay: Growth inhibition of human NCI-H522 cells at 10 uM relative to control; assay type: functional; settings: read-out: GI
SW-620 = assay: Growth inhibition of human SW-620 cells at 10 uM relative to control; assay type: functional; settings: read-out: GI
COLO 205 = assay: Growth inhibition of human COLO 205 cells at 10 uM relative to control; assay type: functional; settings: read-out: GI
HCC 2998 = assay: Growth inhibition of human HCC 2998 cells at 10 uM relative to control; assay type: functional; settings: read-out: GI
HCT-116 = assay: Growth inhibition of human HCT-116 cells at 10 uM relative to control; assay type: functional; settings: read-out: GI
HCT-15 = assay: Growth inhibition of human HCT-15 cells at 10 uM relative to control; assay type: functional; settings: read-out: GI
HT-29 = assay: Growth inhibition of human HT-29 cells at 10 uM relative to control; assay type: functional; settings: read-out: GI
KM12 = assay: Growth inhibition of human KM12 cells at 10 uM relative to control; assay type: functional; settings: read-out: GI
SF-268 = assay: Growth inhibition of human SF-268 cells at 10 uM relative to control; assay type: functional; settings: read-out: GI
SF-295 = assay: Growth inhibition of human SF-295 cells at 10 uM relative to control; assay type: functional; settings: read-out: GI
SF-539 = assay: Growth inhibition of human SF-539 cells at 10 uM relative to control; assay type: functional; settings: read-out: GI
SNB-19 = assay: Growth inhibition of human SNB-19 cells at 10 uM relative to control; assay type: functional; settings: read-out: GI
SNB-75 = assay: Growth inhibition of human SNB-75 cells at 10 uM relative to control; assay type: functional; settings: read-out: GI
U-251 = assay: Growth inhibition of human U-251 cells at 10 uM relative to control; assay type: functional; settings: read-out: GI
Malme-3M = assay: Growth inhibition of human Malme-3M cells at 10 uM relative to control; assay type: functional; settings: read-out: GI
M14 = assay: Growth inhibition of human M14 cells at 10 uM relative to control; assay type: functional; settings: read-out: GI
MDA-MB-435 = assay: Growth inhibition of human MDA-MB-435 cells at 10 uM relative to control; assay type: functional; settings: read-out: GI
SK-MEL-2 = assay: Growth inhibition of human SK-MEL-2 cells at 10 uM relative to control; assay type: functional; settings: read-out: GI
SK-MEL-28 = assay: Growth inhibition of human SK-MEL-28 cells at 10 uM relative to control; assay type: functional; settings: read-out: GI
SK-MEL-5 = assay: Growth inhibition of human SK-MEL-5 cells at 10 uM relative to control; assay type: functional; settings: read-out: GI
UACC-257 = assay: Growth inhibition of human UACC-257 cells at 10 uM relative to control; assay type: functional; settings: read-out: GI
UACC-62 = assay: Growth inhibition of human UACC-62 cells at 10 uM relative to control; assay type: functional; settings: read-out: GI
IGROV-1 = assay: Growth inhibition of human IGROV-1 cells at 10 uM relative to control; assay type: functional; settings: read-out: GI
OVCAR-4 = assay: Growth inhibition of human OVCAR-4 cells at 10 uM relative to control; assay type: functional; settings: read-out: GI
OVCAR-5 = assay: Growth inhibition of human OVCAR-5 cells at 10 uM relative to control; assay type: functional; settings: read-out: GI
OVCAR-8 = assay: Growth inhibition of human OVCAR-8 cells at 10 uM relative to control; assay type: functional; settings: read-out: GI
NCI/ADR-RES = assay: Growth inhibition of human NCI/ADR-RES cells at 10 uM relative to control; assay type: functional; settings: read-out: GI
SK-OV-3 = assay: Growth inhibition of human SK-OV-3 cells at 10 uM relative to control; assay type: functional; settings: read-out: GI
786-0 = assay: Growth inhibition of human 786-0 cells at 10 uM relative to control; assay type: functional; settings: read-out: GI
A498 = assay: Growth inhibition of human A498 cells at 10 uM relative to control; assay type: functional; settings: read-out: GI
ACHN = assay: Growth inhibition of human ACHN cells at 10 uM relative to control; assay type: functional; settings: read-out: GI
CAKI-1 = assay: Growth inhibition of human CAKI-1 cells at 10 uM relative to control; assay type: functional; settings: read-out: GI
RXF 393 = assay: Growth inhibition of human RXF 393 cells at 10 uM relative to control; assay type: functional; settings: read-out: GI
SN12C = assay: Growth inhibition of human SN12C cells at 10 uM relative to control; assay type: functional; settings: read-out: GI
TK-10 = assay: Growth inhibition of human TK-10 cells at 10 uM relative to control; assay type: functional; settings: read-out: GI
UO-31 = assay: Growth inhibition of human UO-31 cells at 10 uM relative to control; assay type: functional; settings: read-out: GI
PC-3 = assay: Growth inhibition of human PC-3 cells at 10 uM relative to control; assay type: functional; settings: read-out: GI
DU-145 = assay: Growth inhibition of human DU-145 cells at 10 uM relative to control; assay type: functional; settings: read-out: GI
MCF7 = assay: Growth inhibition of human MCF7 cells at 10 uM relative to control; assay type: functional; settings: read-out: GI
MDA-MB-231 = assay: Growth inhibition of human MDA-MB-231 cells at 10 uM relative to control; assay type: functional; settings: read-out: GI
Hs-578T = assay: Growth inhibition of human Hs-578T cells at 10 uM relative to control; assay type: functional; settings: read-out: GI
BT-549 = assay: Growth inhibition of human BT-549 cells at 10 uM relative to control; assay type: functional; settings: read-out: GI
DNA = assay: Displacement of methyl green from DNA (unknown origin) assessed as DNA intercalation after 24 hrs by colorimetric assay; assay type: nucleic-acid assay

**Q.** What does the source list for `C1=CN2C(=NC(/C=C/c3cccs3)=CC2c2cccs2)S1` (centres undefined)?
**A.** inhibition of growth at 10 µM (LOX IMVI): < 10%; inhibition of growth at 10 µM (MDA-MB-468): < 10%; inhibition of growth at 10 µM (T47D): < 10%; inhibition of growth at 10 µM (CCRF-CEM): < 10%; inhibition of growth at 10 µM (HL-60(TB)): < 10%; inhibition of growth at 10 µM (K562): < 10%; inhibition of growth at 10 µM (MOLT-4): < 10%; inhibition of growth at 10 µM (RPMI-8226): < 10%; inhibition of growth at 10 µM (SR): < 10%; inhibition of growth at 10 µM (A549): < 10%; inhibition of growth at 10 µM (HOP-62): < 10%; inhibition of growth at 10 µM (HOP-92): < 10%; inhibition of growth at 10 µM (NCI-H226): < 10%; inhibition of growth at 10 µM (NCI-H23): < 10%; inhibition of growth at 10 µM (NCI-H322M): < 10%; inhibition of growth at 10 µM (NCI-H460): < 10%; inhibition of growth at 10 µM (NCI-H522): < 10%; inhibition of growth at 10 µM (SW-620): < 10%; inhibition of growth at 10 µM (COLO 205): < 10%; inhibition of growth at 10 µM (HCC 2998): < 10%; inhibition of growth at 10 µM (HCT-116): < 10%; inhibition of growth at 10 µM (HCT-15): < 10%; inhibition of growth at 10 µM (HT-29): < 10%; inhibition of growth at 10 µM (KM12): < 10%; inhibition of growth at 10 µM (SF-268): < 10%; inhibition of growth at 10 µM (SF-295): < 10%; inhibition of growth at 10 µM (SF-539): < 10%; inhibition of growth at 10 µM (SNB-19): < 10%; inhibition of growth at 10 µM (SNB-75): 12.3%; inhibition of growth at 10 µM (U-251): < 10%; inhibition of growth at 10 µM (Malme-3M): < 10%; inhibition of growth at 10 µM (M14): < 10%; inhibition of growth at 10 µM (MDA-MB-435): < 10%; inhibition of growth at 10 µM (SK-MEL-2): < 10%; inhibition of growth at 10 µM (SK-MEL-28): < 10%; inhibition of growth at 10 µM (SK-MEL-5): < 10%; inhibition of growth at 10 µM (UACC-257): < 10%; inhibition of growth at 10 µM (UACC-62): < 10%; inhibition of growth at 10 µM (IGROV-1): < 10%; inhibition of growth at 10 µM (OVCAR-4): < 10%; inhibition of growth at 10 µM (OVCAR-5): < 10%; inhibition of growth at 10 µM (OVCAR-8): < 10%; inhibition of growth at 10 µM (NCI/ADR-RES): < 10%; inhibition of growth at 10 µM (SK-OV-3): < 10%; inhibition of growth at 10 µM (786-0): < 10%; inhibition of growth at 10 µM (A498): < 10%; inhibition of growth at 10 µM (ACHN): < 10%; inhibition of growth at 10 µM (CAKI-1): < 10%; inhibition of growth at 10 µM (RXF 393): < 10%; inhibition of growth at 10 µM (SN12C): < 10%; inhibition of growth at 10 µM (TK-10): < 10%; inhibition of growth at 10 µM (UO-31): < 10%; inhibition of growth at 10 µM (PC-3): < 10%; inhibition of growth at 10 µM (DU-145): < 10%; inhibition of growth at 10 µM (MCF7): < 10%; inhibition of growth at 10 µM (MDA-MB-231): < 10%; inhibition of growth at 10 µM (Hs-578T): < 10%; inhibition of growth at 10 µM (BT-549): < 10%; IC50 (DNA): 33.67 µg/mL (≈ 103 µM)
